Earlier results in publication PMC6101361 (PLoS ONE, 2018).

Tested on: anti-ß1EC2-induced heart failure in rats
Details: daily applications; ref [20]
Source text: The observed trend to ...

Q: Which “effect on anti-ß1EC2–induced heart failure” value does the source give for `CC(C)NCC(O)COc1ccc(COCCOC(C)C)cc1` (stereo not shown) [bisoprolol] here?
A: only delayed progression of anti-ß1EC2–induced heart failure
